The values below come from US5399565A, “Pyrazolidinone CCK and gastrin antagonists and pharmaceutical formulations therof” (priority 1993, dated 1995).

Data set [1] addresses T1, brain CCK receptor (Mus musculus, UniProt P56481).
T1 construct: from tissue; host or cells: forebrain membranes of male CF-1 mice
T1 sequence (P56481 1-453): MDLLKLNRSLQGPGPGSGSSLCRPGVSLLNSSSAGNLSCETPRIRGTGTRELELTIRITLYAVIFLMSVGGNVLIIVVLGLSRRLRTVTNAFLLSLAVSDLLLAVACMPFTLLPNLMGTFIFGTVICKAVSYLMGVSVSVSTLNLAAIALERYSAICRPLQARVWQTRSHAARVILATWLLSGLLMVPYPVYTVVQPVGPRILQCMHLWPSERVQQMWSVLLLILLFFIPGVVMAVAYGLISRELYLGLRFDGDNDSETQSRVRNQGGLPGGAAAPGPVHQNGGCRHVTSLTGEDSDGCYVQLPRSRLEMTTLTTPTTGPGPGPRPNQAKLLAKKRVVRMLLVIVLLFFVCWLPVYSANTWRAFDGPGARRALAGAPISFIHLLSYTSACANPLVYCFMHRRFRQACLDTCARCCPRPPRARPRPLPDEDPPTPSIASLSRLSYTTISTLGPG
Nature of the data set: CCK receptor binding, mouse brain membranes (125I-CCK-8 sulfate). Particulars: for IC50: mouse brain membranes, read-out: Brain IC50; for inhibition at 10 µM: read-out: Brain Percent Inhibition.

Data set [2] deals with T2, peripheral type CCK receptors in rat pancreas (Rattus norvegicus, UniProt P30551).
T2 construct: Pancreas was obtained from male Sprague-Dawley rats; from tissue; host or cells: pancreas membranes of male Sprague-Dawley rats
T2 sequence (P30551 1-444): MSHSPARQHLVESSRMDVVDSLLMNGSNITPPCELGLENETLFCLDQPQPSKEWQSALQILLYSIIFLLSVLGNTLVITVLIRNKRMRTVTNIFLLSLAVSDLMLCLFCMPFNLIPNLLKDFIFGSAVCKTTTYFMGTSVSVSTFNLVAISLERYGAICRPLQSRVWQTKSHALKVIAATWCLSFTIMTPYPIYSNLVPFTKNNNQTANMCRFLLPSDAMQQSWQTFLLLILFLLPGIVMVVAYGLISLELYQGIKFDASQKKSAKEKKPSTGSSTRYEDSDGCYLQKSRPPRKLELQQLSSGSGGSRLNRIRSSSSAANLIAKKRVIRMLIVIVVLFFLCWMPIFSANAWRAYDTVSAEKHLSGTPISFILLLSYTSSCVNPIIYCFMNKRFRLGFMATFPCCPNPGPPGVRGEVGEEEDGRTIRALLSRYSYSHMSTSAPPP
Nature of the data set: Binding to peripheral type CCK receptors in rat pancreas (3H-L-364,718). Particulars: at 10 μM; read-out: Pancreas Percent Inhibition. An outline of the steps:
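Washed pancreatic membranes from male Sprague-Dawley rats (150-200 g) incubated 1 h at room temperature with 0.4-0.6 nM ³H-L-364,718 in 50 mM Tris pH 7.4, 5 mM MgCl2, bacitracin, 5 mM DTT. Bound radioactivity counted after filtration; nonspecific binding defined with 100 nM L-364,718; IC50 determined.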

Data set [3] addresses T3, gastrin receptor (Cavia porcellus, UniProt H0VZC5).
T3 construct: Guinea pig stomach fundus was obtained from male Hartley guinea pigs; from tissue; host or cells: stomach fundus mucosal membranes of male Hartley guinea pigs
T3 sequence (H0VZC5 1-426): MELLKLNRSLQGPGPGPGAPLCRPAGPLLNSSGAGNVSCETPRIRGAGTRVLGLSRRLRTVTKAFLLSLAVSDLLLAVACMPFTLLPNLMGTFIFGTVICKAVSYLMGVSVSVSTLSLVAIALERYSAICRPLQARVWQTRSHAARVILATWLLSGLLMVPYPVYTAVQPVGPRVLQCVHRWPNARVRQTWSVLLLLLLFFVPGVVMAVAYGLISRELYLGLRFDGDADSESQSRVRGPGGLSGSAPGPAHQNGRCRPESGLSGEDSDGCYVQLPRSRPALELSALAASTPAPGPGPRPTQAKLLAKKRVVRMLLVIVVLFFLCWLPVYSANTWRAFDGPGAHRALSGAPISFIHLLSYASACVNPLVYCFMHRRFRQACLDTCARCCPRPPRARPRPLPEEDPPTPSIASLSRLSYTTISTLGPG
In words: Gastrin binding to guinea pig stomach mucosal membranes (125I-gastrin I). Particulars: guinea pig stomach mucosal membranes; read-out: Gastrin IC50. As for the experimental part: The method used for gastrin binding to guinea pig stomach mucosal membranes was similar to that described by Takeuchi, Speir and Johnson (Am. J. Physiol. 237(3): E284-E294, 1979). Guinea pig stomach fundus was obtained from male Hartley guinea pigs, 300-350 g, and the mucosa was scraped off with a glass slide. The mucosa was homogenized in 50 mM Tris buffer, pH 7.4, containing 1 mM phenylmethanesulfonyl fluoride using a Dounce glass homogenizer, and the suspension was centrifuged at 40,000 g for 10 min. The resulting pellet was resuspended and centrifuged once more, the final pellet was then suspended in 100 ml assay buffer per 1 guinea pig stomach to give a protein concentration of 200-300 μg/200 μl. The assay buffer consisted of 50 mM Tris buffer, pH 7.4, 5 mM MgCl2, 0.14 mg/ml bacitracin, and 1 μg/ml each of leupeptin, chymostatin, aprotinin and pepstatin. Reagent volumes for the assay were the same as those used for CCK binding to brain membranes. The radioactive ligand was 20 pM ^125 I-gastrin I, from DuPont NEN (NEX-176). The samples were incubated 3 hours at room temperature and filtered and counted as described for CCK binding to brain membranes. Compound samples were prepared and IC-50 values were determined as described for the CCK-brain receptor binding. Non-specific binding was determined using 100 nM gastrin I (human synthetic from Sigma Chemical Co.).

Data set [4] is described as follows: pKa by titration. Particulars: 2:1 dmf:h2o, titration pKa.
A short description of data set [5]: Catalepsy bar test. It is filed as in vivo, Male Sprague-Dawley rats. As for the experimental part: Acute administration of classical antipsychotic drugs results in catalepsy. Production of catalepsy is thought to be predictive of Parkinson-like extrapyramidal side effects. Sanberg, et al., Neuroscience 102:748-759 (1988). […] Haloperidol, a classical anti-psychotic, was used as a reference.
Male Sprague-Dawley rats (290-350 g) were used in these studies. Catalepsy was evaluated using the bar test (Sanberg et al., Neurosci., 102,748-759, (1988); Ferre, et al., Pharm. Biochem. Beh., 35, 753-757 (1990). The bar apparatus consisted of a horizontal metal rod with a diameter of 1 cm, which was positioned 10 cm from the floor to the top of the bar. The animal was gently placed in front of the bar, and then its forepaws were lifted to rest on the bar. The length of time, in seconds, until both forepaws touched the floor (3 minutes maximum allowed) was recorded. A baseline measurement was taken prior to injection, and catalepsy was evaluated every 60 minutes for three hours after injection of the compounds (Table IV). In a separate set of experiments, the compounds of this invention were administered 60 minutes prior to the administration of haloperidol, and catalepsy was evaluated every 60 minutes for three hours after the haloperidol injection. Catalepsy scores of drug-treated animals were compared to haloperidol- or vehicle-treated animals at each time point using the analysis of variance (ANOVA) (Table V). Haloperidol (Research Biochemicals Inc.) was dissolved in distilled water and a small amount of 0.1N lactic acid. The compounds of this invention were prepared in 50% ethanol. The volume of all injections was 1 ml/kg.

Data set [6] is described as follows: Block of haloperidol-induced catalepsy, bar test. It counts as in vivo, Male Sprague-Dawley rats. The conditions noted are these: vehicle pretreatment, then Hal. As to the method: Further, compounds of this invention were evaluated for their ability to block haloperidol-induced catalepsy. […] More preferredly, R and R^1 are trans.
Male Sprague-Dawley rats (290-350 g) were used in these studies. […] In a separate set of experiments, the compounds of this invention were administered 60 minutes prior to the administration of haloperidol, and catalepsy was evaluated every 60 minutes for three hours after the haloperidol injection. Catalepsy scores of drug-treated animals were compared to haloperidol- or vehicle-treated animals at each time point using the analysis of variance (ANOVA) (Table V). Haloperidol (Research Biochemicals Inc.) was dissolved in distilled water and a small amount of 0.1N lactic acid. The compounds of this invention were prepared in 50% ethanol. The volume of all injections was 1 ml/kg.

A word on the IC50: it is the concentration that inhibits the measured activity by half. In general, inhibition refers to the percentage by which the read-out fell short of the control. In general, pKa refers to the pH at which an ionisable group is half protonated. Low values mean a group that gives up its proton readily, high ones a group that holds its proton tightly. In the case of `O=C1NN(C(=O)Nc2ccc(OCc3ccccc3)cc2)[C@@H](c2ccccc2)[C@@H]1c1ccccc1` (relative stereo) [Example 3, 1-[(4-Benzyloxyphenyl)aminocarbonyl]-4,5-diphenyl-3-pyrazolidinone], the values for the IC50 in data set [1] and in data set [3] were 54 nM and 1100 nM, respectively. Further, the inhibition at 10 µM in data set [2] is 34%. Further, in data set [4] (first or only value), the pKa came out at 7.7.
Regarding `O=C1NN(C(=O)Oc2ccc(Cl)cc2)[C@@H](c2ccccc2)[C@@H]1c1ccccc1` (relative stereo) [Example 6, 1-[(4-Chlorophenyl)oxycarbonyl]-4,5-diphenyl-3pyrazolidinone], the IC50 in data set [1] was 4400 nM. Moreover, the inhibition at 10 µM in data set [2] came out at 15%. The same molecule registered a pKa in data set [4] (first or only value) of 7.8.
Consider `O=C(CCCN1CCC(O)(c2ccc(Cl)cc2)CC1)c1ccc(F)cc1` [Haloperidol], for which the “Catalepsy Score” value came to 2.2 ± 0.3 s in data set [5] (0.25 mg/kg, 60 Min); 9.9 ± 2.7 s in data set [5] (0.25 mg/kg, 120 Min, * P < 0.001 vs vehicle); 23.1 ± 4.9 s in data set [5] (0.25 mg/kg, 180 Min, * P < 0.001 vs vehicle); 1.8 ± 1.1 s in data set [5] (0.25 mg/kg, Pre); 3.3 ± 1.7 s in data set [5] (0.5 mg/kg, 60 Min); 17.6 ± 2.2 s in data set [5] (0.5 mg/kg, 120 Min, * P < 0.001 vs vehicle). For the same molecule, the “Catalepsy Score” value in data set [5] (0.5 mg/kg, 180 Min, * P < 0.001 vs vehicle) is 33.5 ± 8.3 s; in data set [5] (0.5 mg/kg, Pre) it was 0.9 ± 0.2 s; in data set [5] (1.0 mg/kg, 60 Min, * P < 0.001 vs vehicle), 10.6 ± 6.3 s; in data set [5] (1.0 mg/kg, 120 Min, * P < 0.001 vs vehicle), 100.0 ± 46.2 s; in data set [5] (1.0 mg/kg, 180 Min, * P < 0.001 vs vehicle), 123.9 ± 39.7 s; in data set [5] (1.0 mg/kg, Pre) it was 1.2 ± 0.4 s. Also, the “Catalepsy Score” value in data set [6] (60 Min) is 9.72 ± 2.1 s; in data set [6] (120 Min), 27.42 ± 6 s; in data set [6] (180 Min) it was 30.61 ± 6.4 s; in data set [6] (Pre), 3.12 ± 0.61 s.
Consider `Nc1ccc(NC(=O)N2NC(=O)[C@@H](c3ccccc3)[C@@H]2c2ccccc2)cc1` (relative stereo) [Example 10, 1-[(4-Aminophenyl)aminocarbonyl]-4,5-diphenyl-3-pyrazolidinone], for which the inhibition at 10 µM in data set [1] turned out to be 57%; in data set [2], 4%. Also, the pKa in data set [4] (first or only value) stood at 4.5; in data set [4] (second value), 8.1.
`O=C1NN(C(=O)c2cccc(C(F)(F)F)c2)[C@@H](c2ccccc2)[C@@H]1c1ccccc1` (relative stereo) [Example 5]: the results for the inhibition at 10 µM in data set [1] and in data set [2] were 77% and 18%, respectively. The same molecule registered a pKa in data set [4] (first or only value) of 7.15.
Take `CN(C)c1ccc(NC(=O)N2NC(=O)[C@@H](c3ccccc3)[C@@H]2c2ccccc2)cc1` (relative stereo) [Example 2, 1-[(4-N,N-Dimethylaminophenyl)aminocarbonyl]-4,5-diphenyl-3-pyrazolidinone]: the concentration for half-maximal inhibition (IC50) in data set [1] was found to be 290 nM. The inhibition at 10 µM in data set [2] was 14%. In addition, the pKa in data set [4] (first or only value) was 4; in data set [4] (second value), 7.9.
As for `O=C1NN(C(=O)c2cc3ccccc3[nH]2)[C@@H](c2ccccc2)[C@@H]1c1ccccc1` (relative stereo) [Example 14, 1-(Indole-2-carbonyl)-4,5-diphenyl-3-pyrazolidinone], the 50% inhibitory concentration (IC50) in data set [1] stood at 2600 nM. In addition, the inhibition at 10 µM in data set [2] was determined as 60%. For the same molecule, the pKa in data set [4] (first or only value) amounted to 6.75.
